Source: patent publication US6875761B2 (Eisai Co., Ltd., priority 1997, dated 2005)
Structures can show the parent of a compound that is named as a salt.

Row | SMILES | melting point
1 | CCN1CCN(c2nc(-c3ccc(CCC(C)O)cc3)cc3cccnc23)CC1 (stereo not drawn) (as salt: hydrochloride) [Example 248, 8-(1-ethylpiperazin-4-yl)-6-[4-(3-hydroxybutyl)phenyl]-1,7-naphthyridine Dihydrochloride] | 118 to 121 °C
2 | CCN1CCN(c2nc(-c3ccc(N4CCOCC4)nc3)cc3ccsc23)CC1 (as salt: hydrochloride) [Example 263, 5-[2-(4-morpholinyl)pyridin-5-yl]-7-(4-ethylpiperazin-1-yl)thieno[2,3-c]pyridine Hydrochloride] | 182 to 185 °C
3 | CCN1CCN(c2nc(-c3ccc(OC)cc3)cc3cccc(C)c23)CC1 (as salt: hydrochloride) | 248 to 253 °C
4 | CCN1CCN(c2nc(-c3ccc(OCCO)cc3)cc3cccnc23)CC1 (as salt: hydrochloride) [Example 245, 8-(1-ethylpiperazin-4-yl)-6-[4-(2-hydroxyethoxy)phenyl]-1,7-naphthyridine Dihydrochloride] | 137 to 143 °C
5 | CCN1CCN(c2nc(-c3ccc(OCCO)c(F)c3)cc3ccccc23)CC1 (as salt: hydrochloride) [Example 369, 1-(4-ethylpiperazin-1-yl)-3-[3-fluoro-4-(2-hydroxyethoxy)phenyl]isoquinoline dihydrochloride] | 119 to 120 °C
6 | CCN1CCN(c2nc(/C=C/c3cc(N4CCOCC4)ncn3)cc3ccccc23)CC1 (as salt: oxalate) [Example 215, 3{(E)-2-[4-(4-morpholinyl)pyrimidin-6-yl]ethenyl}-1-(4-ethylpiperazin-1-yl)isoquinoline oxalate] | 130 to 134 °C
7 | CCCC(=O)Nc1ncc(-c2cc3ccccc3c(N3CCN(CC)CC3)n2)cn1 (as salt: hydrochloride) [Example 174, 3-(2-Propylcarbonylaminopyrimidin-5-Yl)-1-(4-Ethylpiperazin-1-Yl)Isoquinoline Hydrochlroide] | 216 to 219 °C
8 | CCN1CCN(c2nc(-c3ccc(N4CCC(CO)CC4)nc3)cc3ccccc23)CC1 (as salt: hydrochloride) [Example 154, 1-(4-ethylpiperazin-1-yl)-3-[2-(4-hydroxymethylpiperidin-1-yl)pyridin-5-yl]isoquinoline trihydrochloride] | 188 °C
9 | CCN1CCN(c2nc(-c3ccc(CCCCO)cc3)cc3ccccc23)CC1 (as salt: hydrochloride) [Example 23, 3-[4-(4-hydroxybutyl)phenyl]-1-(4-ethylpiperazin-1-yl)isoquinoline hydrochloride] | 140 to 144 °C
10 | CCCNS(=O)(=O)c1ccc(-c2cc3ccccc3c(N3CCN(CC)CC3)n2)cc1 (as salt: hydrochloride) [Example 353, 1-(4-ethylpiperazin-1-yl)-3-[4-(N-propylsulfamoyl)phenyl]isoquinoline dihydrochloride] | 226.5 to 227.5 °C (dec.)
11 | CCN1CCN(c2nc(-c3ccc(OCCO)cc3)cc3ccsc23)CC1 (as salt: hydrochloride) [Example 259, 7-(4-ethylpiperazin-1-yl)-5-(4-hydroxyethoxyphenyl)thieno[2,3-c]pyridine Hydrochloride] | 135 to 136 °C
12 | CN1CCN(c2nc(-c3ccc(OCC(C)(C)O)cc3)cc3sccc23)CC1 (as salt: hydrochloride) [Example 288, 6-[4-(2-methyl-2-hydroxypropoxy)phenyl]-4-(4-methylpiperazin-1-yl)thieno[3,2-c]pyridine hydrochloride] | 135 to 138 °C
13 | CCN1CCN(c2nc(-c3ccc(OC)cc3)cc3ccc(F)cc23)CC1 (as salt: hydrochloride) [Example 229, 1-(4-ethylpiperazin-1-yl)-7-fluoro-3-(4-methoxyphenyl)isoquinoline dihydrochloride] | 220 to 225 °C
14 | CCN1CCN(c2nc(-c3ccn(CCO)n3)cc3ccccc23)CC1 (as salt: hydrochloride) | 134 to 140 °C
15 | CCN1CCN(c2nc(CCc3ccc(OC)cc3)cc3ccccc23)CC1 (as salt: hydrochloride) [Example 106, 1-(1-Ethylpiperazin-4-yl)-3-(4-methoxyphenethyl)isoquinoline] | 224 to 227 °C
16 | CCN1CCN(c2nc(-c3ccc(C(O)C4CCCCC4)cc3)cc3ccccc23)CC1 (stereo not drawn) (as salt: hydrochloride) [Example 409, 1-(4-ethylpiperazin-1-yl)-3-[4-(cyclohexylhydroxymethyl)phenyl]isoquinoline] | 153 to 155 °C
17 | CCN1CCN(c2nc(C3=CCCc4c(OC)cccc43)cc3ccccc23)CC1 (as salt: oxalate) | 136 to 139 °C
18 | CCN1CCN(c2nc(Sc3ccccn3)cc3ccccc23)CC1 (as salt: oxalate) [Example 378, 1-(4-Ethylpiperazin-1-yl)-3-(2-Pyridylthio)Isoquinoline Oxalate] | 178 to 181 °C (dec.)
19 | CCN1CCN(c2nc(/C=C/c3cccc(OCCO)c3)cc3ccsc23)CC1 (as salt: hydrochloride) [Example 430, 7-(4-ethylpiperazin-1-yl)-5-[3-(2-hydroxyethoxy)styryl]thieno [2,3-c]pyridine hydrochloride] | 98 to 99 °C
20 | CCN1CCN(c2nc(-c3nc(C)c(CCO)s3)cc3ccccc23)CC1 (as salt: hydrochloride) | 149 to 154 °C
21 | CCN1CCN(c2nc(-c3ccc(OCCO)c(C)c3)cc3ccccc23)CC1 (as salt: hydrochloride) [Example 40, 3-[3-methyl-4-(2-hydroxyethoxy)phenyl]-1-(4-ethylpiperazin-1-yl)isoquinoline hydrochloride] | 133 to 136 °C
22 | CCN1CCN(c2nc(-c3ccc(OCCO)cc3)cc3ccoc23)CC1 (as salt: oxalate) [Example 301, 7-(1-Ethylpiperazin-4-yl)-5-[4-(2-hydroxyethoxy)phenyl]furo[2,3-c]pyridine oxalate] | 145 to 152 °C

Other lines, results leading:

Row | melting point | SMILES
23 | 133 to 136 °C | CCN1CCN(c2nc(C#Cc3ccccc3)cc3ccccc23)CC1 (as salt: hydrochloride) [Example 177, 1-(1-Ethylpiperazin-4-Yl)-3-(Phenylethynyl)Isoquinoline Dihydrochloride]
24 | 129 to 131 °C | COc1ccc(-c2cc3ccsc3c(N3CCN(CCO)CC3)n2)cc1 (as salt: hydrochloride) [Example 276, 5-(4-methoxyphenyl)-7-[4-(2-hydroxyethyl)piperazin-1-yl]thieno[2,3-c]pyridine hydrochloride]
25 | 153 to 158 °C | CCN1CCN(c2nc(-c3ccc(OCCN(C)C)cc3)cc3ccccc23)CC1 (as salt: hydrochloride) [Example 49, 1-(1-Ethylpiperazin-4-Yl)-3-[4-(2-Dimethylaminoethoxy)Phenyl]Isoquinoline]
26 | 224.5 to 226 °C (dec.) | CCN1CCN(c2nc(-c3ccc(OC)cc3)nc3ccccc23)CC1 (as salt: hydrochloride) [Example 427, 4-(4-ethylpiperazin-1-yl)-2-(4-methoxyphenyl)quinazoline Dihydrochloride]
27 | 190 to 192 °C (dec.) | CCCCc1ccc(-c2cc3ccccc3c(N3CCN(CC)CC3)n2)cc1 (as salt: hydrochloride)
28 | 220 °C (dec.) | COc1ccc(-c2cc3ccccc3c(N3CCN(C(C)C)CC3)n2)cc1 (as salt: hydrochloride)
29 | 128 to 129 °C | CCN1CCN(c2nc(-c3ccc(C(O)C4CCCC4)cc3)cc3ccsc23)CC1 (stereo not drawn) (as salt: hydrochloride) [Example 458, 7-(4-ethylpiperazin-1-yl)-5-[4-(cyclopentylhydroxymethyl)phenyl]thieno[2,3-c]pyridine dihydrochloride]
30 | 136 to 140 °C | CCN1CCN(c2nc(-c3ccc(OCC(C)O)cc3)cc3cccnc23)CC1 (stereo in doubt) (as salt: hydrochloride) [Example 246, 8-(1-ethylpiperazin-4-yl)-6-{4-[(S)-2-hydroxypropoxy}phenyl]-1,7-naphthyridine Dihydrochloride]
31 | 126 to 127 °C | CCN1CCN(c2nc(-c3ccc(OC[C@@H](C)O)cc3)cc3ccsc23)CC1 (as salt: hydrochloride) [Example 435, 7-(4-ethylpiperazin-1-yl)-5-[4-(2-hydroxypropoxy)phenyl]thieno[2,3-c]pyridine dihydrochloride]
32 | 152 to 170 °C | CCN1CCN(c2nc(-c3ccc(OCCO)cc3)cc3cc(F)ccc23)CC1 (as salt: hydrochloride) [Example 223, 1-(4-ethylpiperazin-1-yl)-3-[4-(2-hydroxyethoxy)phenyl]-6-fluoroisoquinoline dihydrochloride]
33 | 268 to 270 °C (dec.) | CCN1CCN(c2nc(-c3ccc(S(=O)(=O)N4CCSCC4)cc3)cc3ccccc23)CC1 (as salt: hydrochloride) [Example 76, 3-[(4-Thiomorpholinyl)Sulfonylphenyl]-1-(4-Ethylpiperazin-1-Yl)Isoquinoline Hydrochloride]
34 | 161 to 163 °C | CCN1CCN(c2nc(C#CC(=O)c3ccccc3)cc3ccccc23)CC1 (as salt: oxalate) [Example 184, 1-(1-Ethylpiperazin-4-Yl)-3-Benzoylethynylisoquinoline Oxalate]
35 | 170 °C | CCN1CCN(c2nc(-c3csc(CO)c3)cc3ccccc23)CC1 (as salt: hydrochloride) [Example 161, 1-(1-ethylpiperazin-4-yl)-3-(2-hydroxymethylthiophen-4-yl)isoquinoline dihydrochloride]
36 | 228 to 230 °C | CCN1CCN(c2nc(-c3ccccc3O)cc3ccccc23)CC1.Cl
37 | 127 to 128 °C | CCN1CCN(c2nc(-c3ccc(OC)cc3)cc3ccoc23)CC1 (as salt: hydrochloride) [Example 467, 7-(4-ethylpiperazin-1-yl)-5-(4-methoxyphenyl)furo[2,3-c]pyridine dihydrochloride]
38 | 195 to 196 °C | CCN1CCN(c2nc(-c3ccc(CC(C)CO)cc3)cc3ccccc23)CC1 (stereo not drawn) (as salt: oxalate) [Example 386, 1-(4-Ethylpiperazin-1-yl)-3-[4-(3-Hydroxy-2-Methylpropyl)Phenyl]Isoquinoline Oxalate]
39 | 218 to 220 °C | CCN1CCN(c2nc(-c3ccc(OC)cc3)cc3cc(OC)ccc23)CC1 (as salt: hydrochloride)
